In US12006314B2, “Anti-cancer nuclear hormone receptor-targeting compounds” (Nuvation Bio Inc., priority 2021, dated 2024):
Residue numbers refer to the chain shown, from its start.

Experiments:
[1] = biological target: T1, AR (cytosol from LnCaP cells) (Homo sapiens, UniProt P10275, T878A); experiment: AR binding assay; conditions: 3H-R1881 1 nM, 4° C. 24 hrs
T1 construct: endogenous in cells; host or cells: LNCaP cytosol
T1 sequence (P10275 1-920 T878A): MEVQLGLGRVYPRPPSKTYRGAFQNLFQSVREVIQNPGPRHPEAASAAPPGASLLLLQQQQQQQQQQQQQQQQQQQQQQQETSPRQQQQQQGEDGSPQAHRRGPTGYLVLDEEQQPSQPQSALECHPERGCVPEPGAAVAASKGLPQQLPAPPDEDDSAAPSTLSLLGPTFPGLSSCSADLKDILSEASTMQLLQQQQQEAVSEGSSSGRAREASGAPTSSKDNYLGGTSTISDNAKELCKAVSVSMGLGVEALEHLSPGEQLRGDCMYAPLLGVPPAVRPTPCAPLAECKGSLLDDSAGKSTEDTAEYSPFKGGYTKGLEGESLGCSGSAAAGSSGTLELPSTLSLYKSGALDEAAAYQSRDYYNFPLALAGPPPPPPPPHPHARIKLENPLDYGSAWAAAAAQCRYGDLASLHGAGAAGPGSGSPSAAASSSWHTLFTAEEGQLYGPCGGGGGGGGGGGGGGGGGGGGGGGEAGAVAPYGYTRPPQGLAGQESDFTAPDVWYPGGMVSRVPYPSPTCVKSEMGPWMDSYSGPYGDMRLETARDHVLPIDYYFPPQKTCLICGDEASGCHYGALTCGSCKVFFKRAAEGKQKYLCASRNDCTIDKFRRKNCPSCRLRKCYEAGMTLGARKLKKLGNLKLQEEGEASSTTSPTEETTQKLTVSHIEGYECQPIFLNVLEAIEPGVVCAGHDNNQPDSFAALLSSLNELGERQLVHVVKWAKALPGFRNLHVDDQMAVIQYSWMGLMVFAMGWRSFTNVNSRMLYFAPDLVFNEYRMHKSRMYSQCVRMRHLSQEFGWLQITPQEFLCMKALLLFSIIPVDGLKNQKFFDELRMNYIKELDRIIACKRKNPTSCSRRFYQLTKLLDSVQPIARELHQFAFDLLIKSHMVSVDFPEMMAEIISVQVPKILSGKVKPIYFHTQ
Procedure: AR binding assay: To assess AR binding, test compound (top dose 10 μM, 4 fold serial dilution, 8 point dose response) and control (progesterone) were transferred to the assay plate. Cytosol from LnCaP cells was added to the plate, followed by addition of radiolabeled ^3H-R1881 at a final concentration of 1 nM. The plate was sealed, and the reaction was incubated at 300 rpm at 4° C. for 24 hrs. Radioligand absorption buffer (10 mM Tris-HCl, pH 7.4; 1.5 mM EDTA; 1 mM DTT; 0.25% charcoal; 0.0025% dextran) was then added to the plate, mixed, and incubated at 4° C. for 15 minutes. The plate was then centrifuged at 3000 rpm for 30 minutes at 4° C. The supernatant was transferred to the scint-tube and Tri-carb was used for scintillation counting.

IEC6 cells = experiment: Cell viability assay IEC6; type: cell-based; conditions: Rattus norvegicus, IEC-6, 144 h; 6 days, CellTiterGlo
Procedure: (§1) Cell viability assay: LNCap, 22Rv1, MCF7, MDAMB361, T47D, and IEC6 cells were seeded at a density of 500-2000 cells/well in 96 well plates, and a ‘T0’ (timepoint 0) was included along with the assay plate. The plates were then incubated at 37° C., 5% CO2 in a cell culture incubator overnight. On the next day, the ‘T0’ plate was assayed using CellTiterGlo (Promega, Inc) according to the manufacturer's instructions. The appropriate compounds were diluted in DMSO and added to the assay plate (final DMSO concentration of 0.1-0.2%) on the next day. The assay plates were incubated for 6 days at 37° C., 5% CO2. After the incubation period, the plates were assayed using CellTiterGlo (Promega, Inc) according to the manufacturer's instructions and luminescence was read on the EnVision plate reader. Inhibition of the tested compounds was determined by the following formula: Inhibition rate (%)=(1−(RLU compound−RLU day0)/(RLU control−RLU day0))*100%. GraphPadPrism was used to analyze the data and determine GI50/IC50 values.

LNCap cells = experiment: Cell viability assay LNCap; type: cell-based; conditions: Homo sapiens, 144 h, 6 days, CellTiterGlo
Procedure: as §1

22Rv1 cells = experiment: Cell viability assay 22Rv1; type: cell-based; conditions: Homo sapiens, 22Rv1, 144 h; 6 days, CellTiterGlo
Procedure: as §1

[2] = biological target: T2, full-length androgen receptor (HEK293 cells stably expressing) (Homo sapiens, UniProt P10275); experiment: AR antagonism assay; type: cell-based; conditions: testosterone 1 nM, 20 h, Steady-glo
T2 construct: HEK293 cells stably expressing the full-length androgen receptor were seeded; expressed in transfected cells
T2 sequence (P10275 1-920): T1 sequence (P10275 1-920 T878A) with A878T
Procedure: AR antagonism assay: To evaluate AR antagonist activity, test compound was added to the assay plate (top dose 10 μM, 3 fold serial dilution, 10 point dose response). HEK293 cells stably expressing the full-length androgen receptor were seeded at a density of 20000 cells/well in the assay plate. The assay plate was then incubated at room temperature for 10 minutes and at 37° C., 5% CO2 for 20 minutes. Testosterone is added to the assay plate at 1 nM final concentration and the assay plate incubated at 37° C., 5% CO2 for 20 h. After the incubation period, Steady-glo was added to the assay plate and mixed at room temperature for 20 minutes on an orbital shaker, before reading out on the EnVision plate reader.

Row | SMILES | IC50 [1] [µM] | GI50 (LNCap cells) [µM] | GI50 (22Rv1 cells) [µM] | IC50 [2] [µM] | IC50 (IEC6 cells) [µM]
1 | CCc1cc2ncc(CN3CCN(CC4CCN(c5ccc(C(=O)N[C@H]6CC[C@H](Oc7ccc(C#N)c(Cl)c7)CC6)nn5)CC4)CC3)cc2[nH]c1=O [Compound 4, N-((1r,4r)-4-(3-Chloro-4-cyanophenoxy)cyclohexyl)-6-(4-((4-((7-ethyl-6-oxo-5,6-dihydro-1,5-naphthyridin-3-yl)methyl)piperazin-1-yl)methyl)piperidin-1-yl)pyridazine-3-carboxamide] | < 0.1 | ≤ 0.5 | ≤ 0.5 | > 10 | > 30
2 | CCc1cc2ncc(CN3CCN(c4ccc(-c5nnc([C@H](Nc6ccc(C#N)c(Cl)c6)[C@H](C)O)o5)cc4)CC3)cc2[nH]c1=O [Compound 63, 2-Chloro-4-(((1R,2S)-1-(5-(4-(4-((7-ethyl-6-oxo-5,6-dihydro-1,5-naphthyridin-3-yl)methyl)piperazin-1-yl)phenyl)-1,3,4-oxadiazol-2-yl)-2-hydroxypropyl)amino)benzonitrile] | 0.1 to 1 | 0.5 to 5 | 5 to 30 | > 10 | > 30
3 | CCc1cc2ncc(CN3CCN(c4ccc(-c5nnc([C@H](Nc6ccc(C#N)c(Cl)c6C)[C@H](C)O)o5)cc4)CC3)cc2[nH]c1=O [Compound 64, 2-Chloro-4-(((1R,2S)-1-(5-(4-(4-((7-ethyl-6-oxo-5,6-dihydro-1,5-naphthyridin-3-yl)methyl)piperazin-1-yl)phenyl)-1,3,4-oxadiazol-2-yl)-2-hydroxypropyl)amino)-3-methyl Benzonitrile] | 1 to 10 | 0.5 to 5 | 5 to 30 | > 10 | 0.5 to 5
4 | CCc1cc2ncc(CN3CCN(c4ccc(-c5nnc([C@H]6[C@H](C)OC(=O)N6c6ccc(C#N)c(Cl)c6)o5)cc4)CC3)cc2[nH]c1=O [Compound 65, 2-Chloro-4-((4R,5S)-4-(5-(4-(4-((7-ethyl-6-oxo-5,6-dihydro-1,5-naphthyridin-3-yl)methyl)-piperazin-1-yl)phenyl)-1,3,4-oxadiazol-2-yl)-5-methyl-2-oxooxazolidin-3-yl)benzonitrile] | > 10 | 5 to 30 | > 30 | > 10 | > 30
5 | CCc1cc2ncc(CN3CCN(C[C@H]4CC[C@H](COc5cc(F)c([C@@H]6c7[nH]c8ccccc8c7C[C@@H](C)N6CC(C)(C)F)c(F)c5)CC4)CC3)cc2[nH]c1=O [Compound 75, 7-((4-(((1R,4r)-4-((3,5-Difluoro-4-((1R,3R)-2-(2-fluoro-2-methylpropyl)-3-methyl-2,3,4,9-tetrahydro-1H-pyrido[3,4-b]indol-1-yl)phenoxy)methyl)cyclohexyl)methyl)piperazin-1-yl)methyl)-3-ethyl-1,5-naphthyridin-2(1H)-one] | – | – | – | – | 5 to 30

Further lines, with some results ahead:

Row | IC50 [1] [µM] | GI50 (LNCap cells) [µM] | GI50 (22Rv1 cells) [µM] | IC50 [2] [µM] | SMILES | IC50 (IEC6 cells) [µM]
6 | 0.1 to 1 | ≤ 0.5 | 0.5 to 5 | > 10 | CCc1cc2ncc(CN3CCN(c4ccc(C(=O)NCC5CCN(c6ccc(C(=O)N[C@H]7CC[C@H](Oc8ccc(C#N)c(Cl)c8)CC7)nn6)CC5)nc4)CC3)cc2[nH]c1=O [Compound 1, N-((1r,4r)-4-(3-Chloro-4-cyanophenoxy)cyclohexyl)-6-(4-((5-(4-((7-ethyl-6-oxo-5,6-dihydro-1,5-naphthyridin-3-yl)methyl)piperazin-1-yl)picolinamido)methyl)piperidin-1-yl)pyridazine-3-carboxamide] | > 30
7 | < 0.1 | 0.5 to 5 | 0.5 to 5 | > 10 | CCc1cc2ncc(CN3CCN(CC4CCN(c5ccc(C(=O)N[C@H]6C(C)(C)[C@H](Oc7ccc(C#N)c(Cl)c7)C6(C)C)nn5)CC4)CC3)cc2[nH]c1=O [Compound 13, N-((1r,3r)-3-(3-Chloro-4-cyanophenoxy)-2,2,4,4-tetramethylcyclobutyl)-6-(4-((4-((7-ethyl-6-oxo-5,6-dihydro-1,5-naphthyridin-3-yl)methyl)piperazin-1-yl)methyl)piperidin-1-yl)pyridazine-3-carboxamide] | 0.5 to 5
8 | < 0.1 | 0.5 to 5 | 0.5 to 5 | > 10 | CCc1cc2ncc(CN3CCN(c4ccc(C(=O)N5CCN(CC6CCN(c7ccc(C(=O)N[C@H]8CC[C@H](Oc9ccc(C#N)c(Cl)c9)CC8)nn7)CC6)CC5)nc4)CC3)cc2[nH]c1=O [Compound 59, N-((1r,4r)-4-(3-Chloro-4-cyanophenoxy)cyclohexyl)-6-(4-((4-(5-(4-((7-ethyl-6-oxo-5,6-dihydro-1,5-naphthyridin-3-yl)methyl)piperazin-1-yl)picolinoyl)piperazin-1-yl)methyl)piperidin-1-yl)pyridazine-3-carboxamide] | > 30
9 | < 0.1 | 0.5 to 5 | 0.5 to 5 | > 10 | CCc1cc2ncc(CN3CCN(c4ccc(C(=O)N5CCN(C(=O)C6CCN(c7ccc(C(=O)N[C@H]8CC[C@H](Oc9ccc(C#N)c(Cl)c9)CC8)nn7)CC6)CC5)nc4)CC3)cc2[nH]c1=O [Compound 60, N-((1r,4r)-4-(3-Chloro-4-cyanophenoxy)cyclohexyl)-6-(4-(4-(5-(4-((7-ethyl-6-oxo-5,6-dihydro-1,5-naphthyridin-3-yl)methyl)piperazin-1-yl)picolinoyl)piperazine-1-carbonyl)piperidin-1-yl)pyridazine-3-carboxamide] | > 30
